Where two headings read alike, the source gives them in different places.
Tests used:
[1] = target: hP2X3 (human purinergic P2X receptor subtype 3) (Homo sapiens (Human), UniProt P56373); experiment: FLIPR calcium assay, hP2X3 expressed in HEK293 cells; assay type: cell-based; conditions: read-out: P2X3 IC50
[2] = target: hP2X2/3 (heterodimeric receptors formed by human purinergic P2X receptors subtype 2 and subtype 3) (Homo sapiens (Human), UniProt P56373+Q9UBL9); experiment: FLIPR calcium assay, hP2X2/3 expressed in HEK293 cells (P2X2/3 receptor selectivity); assay type: cell-based; conditions: for IC50: HEK293 cells expressing hP2X2/3, agonist BZ-ATP 5 μM, unit inferred
[3] = system: Male Dunkin Hartley guinea pigs; experiment: Citric acid only cough model; assay type: in vivo, guinea pig; conditions: 30 mg/kg; for Number of coughs and cough latency (in words): compared with the blank vehicle or the condition before administration; for inhibition in vivo at 30 mg/kg: Cavia porcellus
Description: Male Dunkin Hartley guinea pigs (300-350 g) were placed in an animal atomization box, and then the door of the atomization box was closed while the ultrasonic atomizer (Guangdong Yuehua) was turned on. 17.5% citric acid gas was introduced into the atomization box at a maximum atomization rate (about 2 mL/min) for 20 s, and coughs of the animals within 10 min were continuously observed from the time of the start of atomization. During the 10-min observation, coughs of the animals were counted manually, and the number of coughs were judged according to cough postures of the guinea pigs, such as abdominal twitching, mouth opening, and head inclining downward abruptly. The number of coughs during the first 5 min and that during 10 min were recorded, and the cough latency of the guinea pigs, namely the time from the initiation of citric acid induction to the appearance of the first cough, was also recorded.

[4] = In vitro cytotoxicity assay, CCK-8 method; assay type: cell-based; conditions: human, HepG2 cells
Description: In vitro cytotoxicity assay for the compounds disclosed herein was performed in HepG2 cells using the CCK-8 method. HepG2 cells (Beina Bio) in the logarithmic growth phase were collected, the concentration of cell suspension was adjusted, and then the cells were plated on a 96-well cell culture plate at 50,000 cells/well. The cells were then incubated overnight in a cell incubator of 5% […] at 37° C., and after 80-90% cell confluence was achieved, test compounds or vehicle (DMSO) at various concentration gradients were added after medium change. The plate was incubated in a cell incubator of 5% […] at 37° C. for 48 h. After the treatment, the medium in the plate was discarded. The plate was washed twice with PBS, added with CCK-8 working solution (Beyotime) at 100 μL per well, and then incubated at 37° C. for 1.5 h away from light. Absorbance at OD450nm was measured for each well on a microplate reader, and CC50 value of each compound was analyzed and calculated.

[5] = system: Male SD rats; experiment: Two-bottle dysgeusia test (quinine water vs normal water); assay type: in vivo, rat; conditions: for Ratio of quinine/water intake (in words): compared with the blank vehicle; for Quinine/tap water* 100%: rats, single intraperitoneal injection
Description: All drinking water bottles were removed out 20 h before the start of the formal experiment, and all the animals were deprived of water until the start of the experiment. In the experiment, all the animals were randomly grouped and then subjected to a single intraperitoneal injection of a test compound or a vehicle before water was resupplied. The administration time was determined according to the Tmax of the test compound. Then the animals were placed in separate cages, and two bottles of drinking water (one bottle of normal drinking water and one bottle of 0.3 mM quinine water) were provided.

[6] = In vitro metabolic stability, human liver microsome; assay type: in vitro ADME; conditions: liver microsomes, 1 mg/mL liver microsome protein, 37° C., NA = essentially not metabolized, read-out: T1/2 in human liver microsome
Description: (§1) The in vitro metabolic stability of the compounds disclosed herein was determined through incubation of liver microsomes of various species. […] At each time point, 100 μL of the reaction mixture was added into a centrifuge tube containing 400 μL of internal standard working solution (containing a 200 ng/mL solution of dexamethasone, diclofenac, tolbutamide and labetalol in acetonitrile) precooled at 0° C. so as to terminate the reaction, and the mixture was then centrifuged at 10,000 g for 10 min at 4° C. The supernatant was collected for LC-MS assay so as to obtain the values of in vitro metabolic half-life of the test compounds in liver microsomes of various species.

[7] = In vitro metabolic stability, rat liver microsome; assay type: in vitro ADME; conditions: liver microsomes, 1 mg/mL liver microsome protein, 37° C., NA = essentially not metabolized, read-out: T1/2 in rat liver microsome
Description: as §1

[8] = In vitro metabolic stability, guinea pig liver microsome; assay type: in vitro ADME; conditions: liver microsomes, 1 mg/mL liver microsome protein, 37° C., NA = essentially not metabolized, read-out: T1/2 in guinea pig liver microsome
Description: The in vitro metabolic stability of the compounds disclosed herein was determined through incubation of liver microsomes of various species. A proper amount of test compound was added into a liver microsome reaction system (1 mg/mL liver microsome protein, 25 U/mL glucose-6 phosphate dehydrogenase, 1 mM NADP, 6 mM D-glucose 6-phosphate and 5 mM MgCl2), and then the mixture was incubated in a water bath kettle at 37° C. to start the reaction. At each time point, 100 μL of the reaction mixture was added into a centrifuge tube containing 400 μL of internal standard working solution (containing a 200 ng/mL solution of dexamethasone, diclofenac, tolbutamide and labetalol in acetonitrile) precooled at 0° C. so as to terminate the reaction, and the mixture was then centrifuged at 10,000 g for 10 min at 4° C. The supernatant was collected for LC-MS assay so as to obtain the values of in vitro metabolic half-life of the test compounds in liver microsomes of various species.

[9] = system: Male Dunkin Hartley guinea pigs; experiment: ATP-citric acid cough model; assay type: in vivo, guinea pig
Description: Male Dunkin Hartley guinea pigs (300-400 g) were placed into a whole-body plethysmography box to adapt for 3-5 min, then ATP atomization is carried out for 2 min, and 3 min later, 5 min of citric acid atomization was followed, with all atomization rates being about 300 uL/min. The number of coughs and the cough latency of the animals within 10 min from the start of the citric acid atomization were recorded. During the 10-min observation, coughs of the animals were counted manually, and the coughs were judged according to cough postures of the guinea pigs, such as abdominal twitching, mouth opening, head inclining downward abruptly and the like. The number of coughs during 10 min were recorded, and the cough latency of the guinea pigs was also recorded.
The animals were divided into a vehicle group, a dextromethorphan (63 mg/kg) positive group, an AF-219 (30 mg/kg) positive group and Example 173 compound (3, 10, 30 mg/kg) administration groups, and all the compounds were orally administered. Except that dextromethorphan was administered 40 min before ATP-citric acid exposure, the remaining compounds were administered 2 h before ATP-citric acid exposure.

[10] = read-out: Cough inhibition rate Vs Baseline (%)
[11] = read-out: Cough inhibition rate Vs Vehicle (%)
[12] = Table 8, 20 mg/kg, water intake within 15 min, 0.3 mM quinine
[13] = 63 mg/kg oral, 40 min before ATP-citric acid exposure

Chain of hP2X3 (human purinergic P2X receptor subtype 3) (P56373 whole entry): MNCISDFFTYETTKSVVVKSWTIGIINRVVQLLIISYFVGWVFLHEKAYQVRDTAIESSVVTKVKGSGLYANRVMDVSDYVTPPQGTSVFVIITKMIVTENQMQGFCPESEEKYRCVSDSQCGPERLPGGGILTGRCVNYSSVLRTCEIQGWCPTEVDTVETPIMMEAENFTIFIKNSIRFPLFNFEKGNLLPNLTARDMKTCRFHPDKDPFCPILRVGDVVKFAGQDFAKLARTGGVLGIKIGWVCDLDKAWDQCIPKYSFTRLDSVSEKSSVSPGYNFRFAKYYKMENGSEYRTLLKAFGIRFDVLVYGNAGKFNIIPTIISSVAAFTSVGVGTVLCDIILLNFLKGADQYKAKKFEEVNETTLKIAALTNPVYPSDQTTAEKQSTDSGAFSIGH
Chain of hP2X2/3 (heterodimeric receptors formed by human purinergic P2X receptors subtype 2 and subtype 3) (P56373 whole entry): as above
Chain of hP2X2/3 (heterodimeric receptors formed by human purinergic P2X receptors subtype 2 and subtype 3) (Q9UBL9 whole entry): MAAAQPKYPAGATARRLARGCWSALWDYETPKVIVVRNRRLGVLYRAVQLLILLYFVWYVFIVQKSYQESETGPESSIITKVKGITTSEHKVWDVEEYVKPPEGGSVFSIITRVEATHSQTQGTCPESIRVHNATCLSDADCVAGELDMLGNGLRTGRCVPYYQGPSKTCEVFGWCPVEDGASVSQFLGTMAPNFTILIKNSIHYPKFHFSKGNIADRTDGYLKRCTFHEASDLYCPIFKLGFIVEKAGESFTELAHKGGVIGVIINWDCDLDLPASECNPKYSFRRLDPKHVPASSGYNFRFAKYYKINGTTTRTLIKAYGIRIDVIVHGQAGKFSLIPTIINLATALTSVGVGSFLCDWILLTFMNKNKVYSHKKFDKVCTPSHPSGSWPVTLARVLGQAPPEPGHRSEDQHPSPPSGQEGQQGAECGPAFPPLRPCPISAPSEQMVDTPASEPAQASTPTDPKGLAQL

| SMILES | IC50 [1] [µM] | Folds of selectivity [2] | IC50 [2] [µM] | Number of coughs and cough latency (in words) [3] | inhibition in vivo at 30 mg/kg [3, 10] [%] | inhibition in vivo at 30 mg/kg [3, 11] [%] | CC50 at 48 h [4] [µM] | Ratio of quinine/water intake (in words) ([5]; 20 mg/kg) | Quinine/tap water* 100% [5, 12] [%] | half-life [6] [h] | half-life [7] [h] | half-life [8] [h] | Quinine/tap water* 100% ([5]; Table 9, 10 mg/kg) [%] | Quinine/tap water* 100% ([5]; Table 9, 20 mg/kg) [%] | Cough inhibition ratio vs. vehicle (%) [9, 13] [%] | Number of coughs during 10 min [9, 13] | Number of coughs / cough inhibition (in words) ([9]; compared with the vehicle group) |
| --- | --- | --- | --- | --- | --- | --- | --- | --- | --- | --- | --- | --- | --- | --- | --- | --- | --- |
| CC(=O)N1CCO[C@@H](Cc2c(-c3c(F)cc(-c4nnc[nH]4)cc3F)nc3cc(C)ccn23)C1 [Compound 165] | < 0.01 | A (key: A: folds of selectivity >1000; B: 200< folds of selectivity ≤1000; C: folds of selectivity ≤200) | > 60 | can effectively reduce the number of coughs and prolong the cough latency | 54.5 | 53.6 | > 100 | almost unaffected | 3.90 |  |  |  |  |  |  |  |  |
| COC(=O)N1CCO[C@@H](Cc2c(-c3c(F)cc(NC(C)=O)cc3F)nc3cc(C)ccn23)C1 [Compound 2, methyl (S)-2-((2-(2,6-difluoro-4-acetamidophenyl)-7-methylimidazo[1,2-a]pyridin-3-yl)-methyl)morpholine-4-carboxylate] | < 0.01 | A (key: A: folds of selectivity >1000; B: 200< folds of selectivity ≤1000; C: folds of selectivity ≤200) | > 60 | can effectively reduce the number of coughs and prolong the cough latency | 38.7 | 34.2 | 124 | almost unaffected | 5.49 | 14.9 | 0.872 | 1.59 |  |  |  |  |  |
| COc1cc(C(C)C)c(Oc2cnc(N)nc2N)cc1S(N)(=O)=O [Positive compound 2, reference compound] |  |  |  |  |  |  | > 200 |  | 59.41 |  | 18.2 | 14.9 | 18.62 | 34.99 |  |  |  |
| CCC(=O)c1ccn(-c2cc(F)c(-c3nc4cc(C)ccn4c3C[C@H]3CN(C(=O)OC)CCO3)c(F)c2)n1 [Compound 164, methyl (S)-2-((2-(2,6-difluoro-4-(3-propionyl-1H-pyrazol-1-yl)phenyl)-7-methylimidazo[1,2-a]pyridin-3-yl)methyl) morpholine-4-carboxylate] |  | A (key: A: folds of selectivity >1000; B: 200< folds of selectivity ≤1000; C: folds of selectivity ≤200) | > 60 |  | 67.2 | 65.2 | > 100 | almost unaffected | 6.69 |  |  |  |  |  |  |  |  |
| CNC(=O)c1cc(F)c(-c2oc3cc(C)ccc3c2C[C@H]2CN(C(=O)OC)CCO2)c(F)c1 [Compound 53, methyl (S)-2-((2-(2,6-difluoro-4-(methylcarbamoyl)phenyl)-6-methylbenzofuran-3-yl)methyl)morpholine-4-carboxylate] | < 0.01 |  |  | can effectively reduce the number of coughs and prolong the cough latency | 51.7 | 47.7 |  | almost unaffected | 7.65 |  |  |  |  |  |  |  |  |
| COC(=O)N1CCO[C@@H](Cc2c(-c3c(F)cc(N)cc3F)nc3cc(Cl)ccn23)C1 [Compound 161, methyl (S)-2-((2-(4-amino-2,6-difluorophenyl)-7-chloroimidazo[1,2-a]pyridin-3-yl)methyl)morpholine-4-carboxylate] | 0.01 to 0.05 | A (key: A: folds of selectivity >1000; B: 200< folds of selectivity ≤1000; C: folds of selectivity ≤200) | > 60 | can effectively reduce the number of coughs and prolong the cough latency | 66.2 | 63.5 | > 100 | almost unaffected | 5.03 |  |  |  |  |  |  |  |  |
| CC(=O)N1CCO[C@@H](Cc2c(-c3c(F)cc(-n4ccnc4)cc3F)nc3cc(C)ccn23)C1 [Compound 162, (S)-1-(2-((2-(2,6-difluoro-4-(1H-imidazol-1-yl)phenyl)-7-methylimidazo[1,2-a]pyridin-3-yl)methyl)morpholino)ethan-1-one] | < 0.01 | A (key: A: folds of selectivity >1000; B: 200< folds of selectivity ≤1000; C: folds of selectivity ≤200) | > 60 | can effectively reduce the number of coughs and prolong the cough latency | 46.1 | 42.8 | > 100 | almost unaffected | 6.34 |  |  |  |  |  |  |  |  |
| COC(=O)N1CCO[C@@H](Cc2c(-c3c(F)cc(-c4ncc[nH]4)cc3F)nc3cc(C)ccn23)C1 [Compound 7, methyl (S)-2-((2-(2,6-difluoro-4-(1H-imidazol-2-yl)phenyl)-7-methylimidazo[1,2-a]pyridin-3-yl)methyl)morpholine-4-carboxylate] | < 0.01 | A (key: A: folds of selectivity >1000; B: 200< folds of selectivity ≤1000; C: folds of selectivity ≤200) | > 60 | can effectively reduce the number of coughs and prolong the cough latency | 42.6 | 38.3 | 195 | almost unaffected | 6.91 | 2.13 | 0.326 | 0.348 |  |  |  |  |  |
| COc1ccc2c(c1)[C@]13CCCC[C@@H]1[C@H](C2)N(C)CC3 [Dextromethorphan, dextromethorphan, reference compound] |  |  |  |  |  |  |  |  |  |  |  |  |  |  | 61.60 | 8.00 | can significantly reduce the number of coughs |
